Reference: US20240426776A1, “RAPID DIFFERENTIATION OF ANTIBIOTIC-SUSCEPTIBLE AND -RESISTANT BACTERIA THROUGH MEDIATED EXTRACELLULAR ELECTRON TRANSFER” (priority 2021, published 2024)
Converted amounts (≈) assume the structure as drawn. “And” between values parts separate entries of the source, which are not always exact repeats. Equal values may be shown once. Read-outs that look alike come from different tables or passages of the source. Marks after values point to notes of the source that are not given here.

What was measured:
A. baumannii strain 78 = experiment: Absorbance growth curves on increasing concentration of the electron transfer mediator; assay type: cell-based, Acinetobacter baumannii; settings: PMS concentrations higher than 15 μM; MH media; FIG. 3B
Method: […] The wells were inoculated to 0.1 OD600 for a total volume of 200 μL. The plates were continuously mixed by an orbital motion and maintained at 37° C. or 30° C. for S. aureus and oxacillin. Absorbance growth curves were recorded at 600 nm for 24 h and growth curves were presented as the average of three technical replicates with standard deviation.
Error bars represent standard deviation of three replicates. With this PMS concentration of 15 μM, Gram-negative species of bacteria with OD600=0.1 (approximately 10^7 and 10^8 cells per mL; Table 2) consistently had analysis times in less than 90 min, as illustrated by FIG. 3C. The current magnitude is shown to increase with increasing cell density while the response time is seen to be decreased with increasing cell density. Error bars are the standard deviation of four replicates in FIG. 3C. Increasing the cell density also contributed to the “inoculum effect” of antibiotic efficacy resulting in the need for higher concentrations of antibiotics to differentiate sensitive and resistant strains.

[1] = test system: Gram-positive 1 ATCC 29213, Gram-positive 2 BAA-1026; experiment: Standard procedure confirming blinded test (susceptibility, MIC, analysis time); assay type: cell-based; set-up: key to Standard procedure susceptibility or resistance (second symbol of cell): S: The standard procedure established susceptibility or resistance; R: The standard procedure established susceptibility or resistance
Method: (§1) Both Gram-positive strains were correctly classified using 2×(12 μg/mL oxacillin) in <120 min (97±45 min and 103±33 min). The Gram-negative strains were also correctly classified after increasing concentrations of imipenem from 2× to 20×(12 to 120 μg/mL imipenem). […] These phenotypic results were confirmed with results of standard procedure known to those skilled in the art and are included in Table 4 below, wherein READAS(S) susceptibility was defined by an ASIn≥0.4; (R) resistant was defined by an ASIn<0.4; analysis time shown in minutes. The standard procedure established susceptibility or resistance, MIC in μg/mL, and analysis time shown in hours.

[2] = test system: Staphylococcus aureus (strains 29213 and 43300); settings: cited from earlier work
[3] = test system: Staphylococcus aureus (strains 29213 and 43300); experiment: READAS electrochemical current response with PMS mediator (ASIn); assay type: cell-based; settings: for ASIn (antibiotic susceptibility index), single replicates: oxacillin 20× breakpoint (120 μg/mL), ASI20, 30° C., 15 μM PMS, 0.1 OD600
Method: Each measurement was replicated at least four times.
(S. aureus experiments) or 37° C. (all others) MH media.
The current responses measured follows a sigmoidal curve structure.
As a second example method of operation, the S. aureus strains selected from Table 2 were assessed. Initially, a 2×CLSI resistance breakpoint concentrations for two antibiotics oxacillin (12 μg/mL) and tobramycin (32 μg/mL) were used for the example method of operation. The ASI2<0.4 and it was concluded that the concentration of the antibiotics was insufficient to classify the strains as antibiotic-susceptible or -resistant. S. aureus was then treated with 4×, 6×, 8×, 10×, and 20× the breakpoint concentration of oxacillin and was compared to the control as depicted in FIG. 8A. […] S. aureus was also treated with 4× and 10× the breakpoint concentration of tobramycin and was compared to the control depicted in FIG. 8B. […] The efficacy of antibiotic was proportional to the concentration when a high cell density (1.1×10^8 CFU/mL) was used.
The ASIn analysis time for classifying the strains as resistant or susceptible for tobramycin treatment was 33-78 min which was 30 min less than needed for detecting oxacillin susceptibility which required 60-96 min.

[4] = test system: Gram-positive 1 ATCC 29213, Gram-positive 2 BAA-1026; experiment: READAS operator blinded test; assay type: cell-based; settings: oxacillin 2× (12 μg/mL); for ASIn: OD600=0.1
Method: Tests were conducted for which the species or resistance phenotype was not known beyond the fact that one set was a Gram-positive and the other Gram-negative, and the antibiotics to be tested were oxacillin and imipenem, respectively. The isolates were provided as coded streak plates. Because the species were unknown, the breakpoint concentration of oxacillin and imipenem were estimated from the known breakpoints of the four previously tested strains (as shown in Table 1; 6 μg/mL for oxacillin, S. aureus and 6 μg/mL imipenem for Gram-negative strains). Following the decision methodology for determining antibiotic susceptibility and resistance of READAS, the strains were first tested with 2× the resistance breakpoint concentration (12 μg/mL oxacillin or imipenem) and the ASI2 was measured. This was increased up to 24× the resistance breakpoint concentration. If ASI2≥0.4 then the strain was considered susceptible. […] If neither strain achieved an ASI2≥0.4, 24× the resistance breakpoint concentration was tested and the ASI24 was measured.
As another example method of operation, operator blinded tests were conducted using susceptible and resistant strains of Gram-positive and -negative bacteria. Because the species identification was unknown, […] oxacillin was chosen as the estimated resistance breakpoint for the Gram-positive strain and 6 μg/mL imipenem was initially chosen as the resistance breakpoint for the Gram-negative strain. The stains selected for this example method of operation include Gram-positive 1 ATCC 29213, Gram-positive 2 BAA-1026, Gram-negative 1 AR55 and Gram-negative 2 AR58 with cultures of OD600=0.1, for simplicity.
as §1

[5] = test system: Staphylococcus aureus (strains 29213 and 43300); experiment: Microdilution antibiotic susceptibility assay (MIC, CLSI guidelines); assay type: cell-based; settings: for MIC: Staphylococcus aureus, MH media, oxacillin: 30° C., 18-24 h, 2% NaCl, read-out: estimated minimum inhibitory concentration from this study
Method: Testing for S. aureus susceptibility to oxacillin differed with incubation at 30° C. for 18-24 h in MH media supplemented with 2% NaCl.
Values listed in Table 2 below include the estimated minimum inhibitory concentration from this study (μg/mL), the determination of(S) sensitive or (R) resistant microbes according to CLSI criteria, and the CLSI guidelines (μg/mL) for the species being tested. Empty cells were not evaluated.

Row | SMILES | inhibition of bacterial growth by the electron transfer mediator (A. baumannii strain 78) | MIC ([1]; Gram-positive 1 (ATCC 29213)) | Standard procedure susceptibility or resistance (second symbol of cell) ([1]; Gram-positive 1 (ATCC 29213)) | MIC ([1]; Gram-positive 2 (BAA-1026)) | Standard procedure susceptibility or resistance (second symbol of cell) ([1]; Gram-positive 2 (BAA-1026)) | CLSI guidelines (resistance breakpoint) for the species [2] | current response with increasing antibiotic concentration ([3]; oxacillin 4×, 6×, 8×, 10×, 20× breakpoint (FIG. 8A), tobramycin 4× and 10× (FIG. 8B), […]10^8 CFU/mL) | ASIn (antibiotic susceptibility index), single replicates ([3]; strain 29213 (susceptible)) | average ASI20 (±SE) ([3]; strain 43300 (resistant), oxacillin 20× (120 μg/mL)) | ASIn (antibiotic susceptibility index), single replicates ([3]; strain 43300 (resistant)) | READAS susceptibility (first symbol of cell) ([4]; Gram-positive 1 (ATCC 29213)) | ASIn ([4]; Gram-positive 1 (ATCC 29213)) | READAS susceptibility (first symbol of cell) ([4]; Gram-positive 2 (BAA-1026)) | ASIn ([4]; Gram-positive 2 (BAA-1026)) | MIC ([5]; strain 29213) | MIC ([5]; strain 43300) | sensitive or resistant according to CLSI criteria ([5]; strain 29213) | sensitive or resistant according to CLSI criteria ([5]; strain 43300)
1 | COS(=O)(=O)[O-].C[n+]1c2ccccc2nc2ccccc21 [PMS, phenazine methosulfate] | higher concentrations produced variable degrees of inhibition between strains |  |  |  |  |  |  |  |  |  |  |  |  |  |  |  |  | 
2 | Cc1onc(-c2ccccc2)c1C(=O)N[C@@H]1C(=O)N2[C@@H]1SC(C)(C)[C@@H]2C(=O)O [Oxacillin, oxacillin] |  | 0.5 µg/mL (≈ 1.25 µM) | S/S | ≥ 4 µg/mL | R/R | 6 µg/mL | decreased with increasing oxacillin concentration except at low doses where no effect or an increase in the current is observed | 0.4 and 0.63 and 0.59 | 0.17±0.13 | 0.4 and 0.63 and 0.59 | S/S (READAS(S) susceptibility was defined by an ASIn≥0.4) | 0.55 ± 0.14^b | R/R ((R) resistant was defined by an ASIn<0.4) | −0.04 ± 0.19^b | 0.5 µg/mL (≈ 1.25 µM) | 32 µg/mL (≈ 79.7 µM) | S | R
